The source of these data is patent publication US20240173439A1, “FLUORINE-CONTAINING COMPOUND AND CONTRAST MEDIUM” (TDK CORPORATION, priority 2021, published 2024).

Each structure is given as a SMILES string.

A short description of this data set: Measurement of 19F spin-lattice relaxation time (T1) by inversion recovery, 500 MHz NMR. The format is physicochemical. The following applies: 50 mM in CDCl3, 36° C. The procedure: (Measurement of ^19F Spin-Lattice Relaxation Time (T1))
A compound was dissolved in a deuterated chloroform solution at a concentration of 50 mM, and the longitudinal relaxation time (T1) of ^19F nucleus was measured through an inversion recovery method using a 500 MHz NMR device under the conditions shown below.
Measurement Conditions • NMR device: JNM-ECA500 (manufactured by JEOL) • Measurement temperature: 36° C. • Pulse sequence: double_pulse • relaxation_delay: 10[s] • tau_interval: 4, 3, 2, 1, 0.8, 0.6, 0.4, 0.2, 0.1[s], 80, 60, 40, 20, 10, 8, 6, 4, 2[ms] • Number of times of integration: 16 times
Regarding `CC1(C)CC(OCCCCOC(C(F)(F)F)(C(F)(F)F)C(F)(F)F)CC(C)(C)N1[O]` [Compound 11, 4-(4-((1,1,1,3,3,3-hexafluoro-2-(trifluoromethyl)propane-2-yl)oxy)butoxy)-2,2,6,6-tetra methylpiperidine-1-oxyl], the “T1 (19F spin-lattice relaxation time)” value is 0.134 s.
In the case of `CC1(C)CC(OCCOC(C(F)(F)F)(C(F)(F)F)C(F)(F)F)CC(C)(C)N1[O]` [Compound 12], the “T1 (19F spin-lattice relaxation time)” value is 0.121 s.
Then `CC1(C)CC(OCCC(F)(F)F)CC(C)(C)N1[O]` [Compound 13], with 0.105 s; and `CC1(C)CC(OCCCC(F)(F)F)CC(C)(C)N1[O]` [Compound 14], with 0.117 s; and `CC1(C)CC(OC(C(F)(F)F)(C(F)(F)F)C(F)(F)F)CC(C)(C)N1[O]` [Compound 15, 4-((1,1,1,3,3,3-hexafluoro-2-(trifluoromethyl)propane-2-yl)oxy)-2,2,6,6-tetramethylpiper idine-1-oxyl], with 0.094 s.
Then `CC1(C)CC(OC(C(F)(F)F)C(F)(F)F)CC(C)(C)N1[O]` [Compound 16], with 0.096 s.
Take `CC1(C)CC(OCC(F)(F)F)CC(C)(C)N1[O]` [Compound 17]: the “T1 (19F spin-lattice relaxation time)” value is 0.101 s.
As for `CC1(C)CC(Oc2ccccc2C(F)(F)F)CC(C)(C)N1[O]` [Compound 18], the “T1 (19F spin-lattice relaxation time)” value came out at 0.098 s.
For `CC1(C)CC(Oc2cccc(C(F)(F)F)c2)CC(C)(C)N1[O]` [Compound 19], the “T1 (19F spin-lattice relaxation time)” value came to 0.110 s.
Then `CC1(C)CC(Oc2cc(C(F)(F)F)cc(C(F)(F)F)c2)CC(C)(C)N1[O]` [Compound 20], with 0.108 s; and `CC1(C)CC(Oc2ccc(C(F)(F)F)cc2)CC(C)(C)N1[O]` [Compound 21], with 0.123 s; and `CCC1(CC)CC(OCCCCOC(C(F)(F)F)(C(F)(F)F)C(F)(F)F)CC(CC)(CC)N1[O]` [Compound 22, 4-(4-((1,1,1,3,3,3-hexafluoro-2-(trifluoromethyl)propane-2-yl)oxy)butoxy)-2,2,6,6-tetraet hylpiperidine-1-oxyl], with 0.130 s.
Then `CCC1(CC)CC(OCCOC(C(F)(F)F)(C(F)(F)F)C(F)(F)F)CC(CC)(CC)N1[O]` [Compound 23], with 0.118 s; and `CC1(C)CC(OC(C(F)(F)F)(C(F)(F)F)C(F)(F)F)CC(C)(C)N1[O]` [Compound 24, 4-((1,1,1,3,3,3-hexafluoro-2-(trifluoromethyl)propane-2-yl)oxy)-2,2,6,6-tetramethylpiperidine-1-oxyl], with 0.092 s; and `CCC1(CC)CC(OCCCCOC(C(F)(F)F)(C(F)(F)F)C(F)(F)F)CC(C)(C)N1[O]` (stereo not shown) [Compound 25, 4-(4-((1,1,1,3,3,3-hexafluoro-2-(trifluoromethyl)propane-2-yl)oxy)butoxy)-2,2-diethyl-6,6-dimethylpiperidine-1-oxyl], with 0.127 s.
Consider `CC1(C)CC(OCCCCOC(C(F)(F)F)C(F)(F)F)CC(C)(C)N1[O]` [Compound 26, 4-(4-((1,1,1,3,3,3-hexafluoropropane-2-yl)oxy)butoxy)-2,2,6,6-tetramethylpiperidine-1-o xyl], for which the “T1 (19F spin-lattice relaxation time)” value was 0.130 s.
For the molecule `CC1(C)CC(OCCCCCCCCOC(C(F)(F)F)(C(F)(F)F)C(F)(F)F)CC(C)(C)N1[O]` [Compound 27, 4-((8-((1,1,1,3,3,3-hexafluoro-2-(trifluoromethyl)propane-2-yl)oxy)octyl)oxy)-2,2,6,6-tet ramethylpiperidine-1-oxyl], the “T1 (19F spin-lattice relaxation time)” value is 0.130 s.
Then `CC1(C)CC(OCCCCCCCCCCCCOC(C(F)(F)F)(C(F)(F)F)C(F)(F)F)CC(C)(C)N1[O]` [Compound 28], with 0.214 s; and `CC1(C)CC(OCCCCCCCCCCCCCCCCOC(C(F)(F)F)(C(F)(F)F)C(F)(F)F)CC(C)(C)N1[O]` [Compound 29], with 0.284 s.
